# Reference: US20070032468A1, “Novel thioxanthine derivatives for use as inhibitors of mpo” (AstraZeneca AB, priority 2003, published 2007)
# Molecular target: T1, human MPO (Homo sapiens, UniProt P05164)
# T1 sequence (P05164 49-745): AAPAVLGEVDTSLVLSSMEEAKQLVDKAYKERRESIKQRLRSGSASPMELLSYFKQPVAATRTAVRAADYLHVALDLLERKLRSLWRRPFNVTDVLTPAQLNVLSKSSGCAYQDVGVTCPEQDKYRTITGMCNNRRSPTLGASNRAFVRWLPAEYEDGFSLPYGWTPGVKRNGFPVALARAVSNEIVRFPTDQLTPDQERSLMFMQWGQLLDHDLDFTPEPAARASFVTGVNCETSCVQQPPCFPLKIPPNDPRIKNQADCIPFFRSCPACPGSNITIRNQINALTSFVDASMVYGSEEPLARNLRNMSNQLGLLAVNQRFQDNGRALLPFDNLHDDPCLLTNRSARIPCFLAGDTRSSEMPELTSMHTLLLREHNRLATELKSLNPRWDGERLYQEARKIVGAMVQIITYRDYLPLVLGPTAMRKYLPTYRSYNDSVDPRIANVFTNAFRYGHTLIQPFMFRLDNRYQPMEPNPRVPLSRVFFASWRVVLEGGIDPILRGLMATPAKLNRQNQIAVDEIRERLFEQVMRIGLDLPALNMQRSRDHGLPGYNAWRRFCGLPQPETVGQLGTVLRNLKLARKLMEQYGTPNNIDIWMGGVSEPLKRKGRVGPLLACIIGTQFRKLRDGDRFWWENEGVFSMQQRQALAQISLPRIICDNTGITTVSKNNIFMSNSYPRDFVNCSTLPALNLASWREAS
# Assay: MPO inhibitory activity screen (TMB oxidation, absorbance)
# Type: biochemical
# Settings: human MPO 2.5 nM, H2O2 100 μM, buffer pH 6.5, absorbance at about 650 nM
# Description: Methods for the determination of MPO inhibitory activity are disclosed in co-pending patent application WO 02/090575. The pharmacological activity of compounds according to the invention was tested in the following screen:
# Assay buffer: 20 mM sodium/potassium phosphate buffer pH 6.5 containing 10 mM taurine and 100 mM NaCl.
# Developing reagent: 2 mM 3,3′,5,5′-tetramethylbenzidine (TMB), 200 μM KI, 200 mM acetate buffer pH 5.4 with 20% DMF.
# To 10 μl of diluted compounds in assay buffer, 40 μl of human MPO (final concentration 2.5 nM) was added for 10 minutes at room temperature. Then 50 μl of H2O2 (final concentration 100 μM), or assay buffer alone as a control, were added for 10 minutes at room temperature. The reaction was stopped by adding 10 μl 0.2 mg/ml of catalase (final concentration 18 μg/ml) for 5 minutes before 100 μl of TMB developing reagent was added (2 mM TMB in 200 mM acetate buffer pH 5.4 containing 20% dimethylformamide (DMF) and 200 μM KI). Plates were mixed and the amount of oxidised 3,3′,5,5′-tetramethylbenzidine formed was then measured after about 5 minutes using absorbance spectroscopy at about […]. IC50 values were then determined using standard procedures.
smiles,measurement,value
"CC(C)Cn1c(=S)[nH]c(=O)c2[nH]c(C(F)(F)F)nc21 [Example 1, 3-Isobutyl-2-thioxo-8-trifluoromethyl-1,2,3,7-tetrahydro-purin-6-one]",IC50,< 60 µM
